{"source": "paper PMC12114571", "about": "“3-(3-Azabicyclo[2, 2, 1]heptan-2-yl)-1,2,4-oxadiazoles as Novel Potent DPP-4 Inhibitors to Treat T2DM” (Pharmaceuticals, 2025)", "key": {"[1]": {"biological_target": "T1, recombinant DPP-4 enzyme D4943 (Homo sapiens, UniProt P27487)", "T1 construct": "purchased Sigma-Aldrich D4943", "T1 sequence (P27487 whole entry)": "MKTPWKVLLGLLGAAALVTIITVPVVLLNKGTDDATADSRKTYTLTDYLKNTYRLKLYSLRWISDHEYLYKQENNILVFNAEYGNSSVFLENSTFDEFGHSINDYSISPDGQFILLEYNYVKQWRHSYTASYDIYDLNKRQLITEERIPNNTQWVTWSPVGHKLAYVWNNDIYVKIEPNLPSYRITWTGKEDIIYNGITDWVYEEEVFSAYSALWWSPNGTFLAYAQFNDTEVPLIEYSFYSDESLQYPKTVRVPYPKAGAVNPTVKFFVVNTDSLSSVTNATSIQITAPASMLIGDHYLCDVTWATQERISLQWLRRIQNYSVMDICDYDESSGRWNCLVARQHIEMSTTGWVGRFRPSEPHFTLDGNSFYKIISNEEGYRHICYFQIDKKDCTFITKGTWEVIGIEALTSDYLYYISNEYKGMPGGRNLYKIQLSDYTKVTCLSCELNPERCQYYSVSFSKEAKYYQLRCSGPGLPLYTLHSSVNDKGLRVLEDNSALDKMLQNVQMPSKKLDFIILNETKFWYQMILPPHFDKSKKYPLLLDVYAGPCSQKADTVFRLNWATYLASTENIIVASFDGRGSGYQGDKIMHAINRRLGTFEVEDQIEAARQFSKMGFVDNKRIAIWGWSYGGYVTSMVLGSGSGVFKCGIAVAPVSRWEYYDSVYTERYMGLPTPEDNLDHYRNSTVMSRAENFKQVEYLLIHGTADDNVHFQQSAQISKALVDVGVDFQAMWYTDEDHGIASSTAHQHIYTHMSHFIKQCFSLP", "assay": "DPP-4 enzyme inhibitory assay, chromogenic substrate Gly-Pro-pNA, absorbance at 405 nm", "format": "biochemical", "conditions": "37 °C for 30 min, pH = 7.6, dilution range 10^−4 to 10^−11 M", "protocol": "(§1) The assessment of DPP-4 enzyme inhibitory activities for the synthesised compounds was performed using protocols similar to those previously described in the literature. […] Following a brief incubation period (37 °C for 30 min), absorbance at 405 nm was measured. Initial optimisation of the procedure utilised reference compounds. […] Correspondingly, the analysis of inhibition activity for related enzymes was executed using DPP-8 and DPP-9 inhibition assays, where the compounds were studied in the dilution range 10^−2 to 10^−8 M (Table 2).\n(§2) For the in vitro assays, we used the substrate Gly-Pro-p-nitroanilide (H-Gly-Pro pNA HCl, G0513) and recombinant dipeptidyl peptidase-4 enzyme (D4943), which were purchased from Sigma-Aldrich (St. Louis, MO, USA). Samples containing DPP-4 (0.0015 U/well) and varying concentrations of test compounds were incubated with the chromogenic peptide substrate, G0513 (90 µg/well), in a total volume of 100 µL of buffer system (50 mM Tris-HCl, 50 mM NaCl, 0.01% Triton, pH = 7.6). The mixtures were incubated at 37 ◦C for 30 min, and the absorbance at 405 nm was measured using the microplate reader ChemWell (Awareness Technology Inc., Palm City, FL, USA). The DPP-4 inhibitory activities for each test compound were calculated. IC50 values were obtained using GraphPad Prism 8 software. The inhibition activity analysis of the related enzymes was performed using the “Fluorogenic DPP-8 Assay Kit” and “Fluorogenic DPP-9 Assay Kit”, both purchased from BPS Bioscience (San Diego, CA, USA). The dilution range for every compound was 10^−2–10^−8 M."}, "DPP-8 [2]": {"biological_target": "T2, DPP-8 (Homo sapiens, UniProt Q6V1X1)", "T2 construct": "purchased BPS Bioscience", "T2 sequence (Q6V1X1 whole entry)": "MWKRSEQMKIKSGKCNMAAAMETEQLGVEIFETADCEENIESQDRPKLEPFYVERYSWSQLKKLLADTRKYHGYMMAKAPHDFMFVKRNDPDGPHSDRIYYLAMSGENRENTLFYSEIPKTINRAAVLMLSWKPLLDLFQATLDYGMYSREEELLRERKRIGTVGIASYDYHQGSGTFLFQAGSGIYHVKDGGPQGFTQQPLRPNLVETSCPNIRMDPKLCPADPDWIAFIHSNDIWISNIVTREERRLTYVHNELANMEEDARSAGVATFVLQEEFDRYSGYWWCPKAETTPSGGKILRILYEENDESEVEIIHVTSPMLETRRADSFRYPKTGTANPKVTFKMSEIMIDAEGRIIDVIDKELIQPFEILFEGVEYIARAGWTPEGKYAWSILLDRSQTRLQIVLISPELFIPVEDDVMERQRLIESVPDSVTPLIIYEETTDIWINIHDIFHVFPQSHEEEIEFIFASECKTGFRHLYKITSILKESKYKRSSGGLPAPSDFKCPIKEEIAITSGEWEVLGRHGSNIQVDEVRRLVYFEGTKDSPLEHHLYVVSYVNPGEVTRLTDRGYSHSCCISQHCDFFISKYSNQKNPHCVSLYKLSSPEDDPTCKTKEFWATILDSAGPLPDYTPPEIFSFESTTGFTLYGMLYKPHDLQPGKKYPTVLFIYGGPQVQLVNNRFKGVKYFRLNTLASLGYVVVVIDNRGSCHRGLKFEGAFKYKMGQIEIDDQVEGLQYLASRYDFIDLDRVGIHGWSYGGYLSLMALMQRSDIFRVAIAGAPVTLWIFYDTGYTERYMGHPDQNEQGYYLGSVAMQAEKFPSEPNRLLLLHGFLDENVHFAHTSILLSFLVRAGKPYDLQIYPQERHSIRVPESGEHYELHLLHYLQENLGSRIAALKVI", "assay": "Fluorogenic DPP-8 Assay Kit inhibition assay", "format": "biochemical", "conditions": "for pIC50: dilution range 10^−2 to 10^−8 M", "protocol": "as §1, §2"}, "DPP-9 [3]": {"biological_target": "T3, DPP-9 (Homo sapiens, UniProt Q86TI2)", "T3 construct": "purchased BPS Bioscience", "T3 sequence (Q86TI2 whole entry)": "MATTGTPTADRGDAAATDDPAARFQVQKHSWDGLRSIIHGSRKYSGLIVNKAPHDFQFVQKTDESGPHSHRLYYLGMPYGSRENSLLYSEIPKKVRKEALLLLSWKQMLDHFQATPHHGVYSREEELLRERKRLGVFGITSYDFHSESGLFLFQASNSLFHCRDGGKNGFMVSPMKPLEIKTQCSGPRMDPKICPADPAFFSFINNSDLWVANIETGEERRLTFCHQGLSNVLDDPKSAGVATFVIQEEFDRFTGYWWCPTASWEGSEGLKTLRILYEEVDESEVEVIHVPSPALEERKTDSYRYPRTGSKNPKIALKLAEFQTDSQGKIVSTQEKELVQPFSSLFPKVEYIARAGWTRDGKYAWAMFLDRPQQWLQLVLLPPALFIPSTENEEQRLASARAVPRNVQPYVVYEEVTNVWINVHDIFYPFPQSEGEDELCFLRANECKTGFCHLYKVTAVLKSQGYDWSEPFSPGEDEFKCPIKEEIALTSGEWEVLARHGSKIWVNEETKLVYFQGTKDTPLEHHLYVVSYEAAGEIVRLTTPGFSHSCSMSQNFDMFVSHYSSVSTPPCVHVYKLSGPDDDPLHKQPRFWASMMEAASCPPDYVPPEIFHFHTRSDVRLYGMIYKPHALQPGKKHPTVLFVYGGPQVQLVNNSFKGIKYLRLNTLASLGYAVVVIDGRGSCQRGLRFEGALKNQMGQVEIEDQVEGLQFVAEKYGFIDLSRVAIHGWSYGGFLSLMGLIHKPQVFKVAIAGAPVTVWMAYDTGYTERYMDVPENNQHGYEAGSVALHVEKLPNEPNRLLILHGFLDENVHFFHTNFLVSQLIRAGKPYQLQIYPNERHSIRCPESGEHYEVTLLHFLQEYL", "assay": "Fluorogenic DPP-9 Assay Kit inhibition assay", "format": "biochemical", "conditions": "for pIC50: dilution range 10^−2 to 10^−8 M", "protocol": "as §1, §2"}, "[4]": {"biological_target": "T1, recombinant DPP-4 enzyme D4943", "design": "method as in PMID 35337071", "conditions": "neogliptin reference value; cited from earlier work"}, "DPP-8 [5]": {"biological_target": "T2, DPP-8", "design": "method as in PMID 35337071", "conditions": "neogliptin reference value; cited from earlier work"}, "DPP-9 [6]": {"biological_target": "T3, DPP-9", "design": "method as in PMID 35337071", "conditions": "neogliptin reference value; cited from earlier work"}, "[7]": {"conditions": "concentration range 10^−3–10^−6 M"}}, "note": "pIC50: −log10 of the molar value. Like-named read-outs stand apart in the source and are kept apart here."}
{"smiles": "N[C@@H](CC(=O)N1C2CCC(C2)[C@H]1c1noc(-c2ccccc2)n1)Cc1cc(F)c(F)cc1F", "note": "(stereo partly drawn) [3a, (3R)-3-Amino-1-[(3S)-3-(5-phenyl-1,2,4-oxadiazol-3-yl)-2-azabicyclo [2.2.1]heptan-2-yl]-4-(2,4,5-trifluorophenyl)butan-1-one]", "values": [{"measurement": "pIC50", "setting": "[1]", "result": 7.67}, {"measurement": "pIC50", "setting": "DPP-8 [2]", "result": "< 6.00"}, {"measurement": "pIC50", "setting": "DPP-9 [3]", "result": "< 6.00"}]}
{"smiles": "N[C@@H](CC(=O)N1C2CCC(C2)[C@H]1c1nc(-c2ccccc2)no1)Cc1cc(F)c(F)cc1F", "note": "(stereo partly drawn) [9a, (3R)-3-Amino-1-[(3S)-3-(3-phenyl-1,2,4-oxadiazol-5-yl)-2-azabicyclo[2.2.1]heptan-2-yl]-4-(2,4,5-trifluorophenyl)butan-1-one]", "values": [{"measurement": "pIC50", "setting": "[1]", "result": 8.37}, {"measurement": "DPP-8 inhibitory activity (in words)", "setting": "DPP-8 [2]; [7]", "result": "did not mediate any substantial inhibition"}, {"measurement": "pIC50", "setting": "DPP-8 [2]", "result": "< 6.00"}, {"measurement": "DPP-9 inhibitory activity (in words)", "setting": "DPP-9 [3]; [7]", "result": "did not mediate any substantial inhibition"}, {"measurement": "pIC50", "setting": "DPP-9 [3]", "result": "< 6.00"}]}
{"smiles": "N[C@@H](CC(=O)N1C2CCC(C2)[C@@H]1c1nc(-c2ccccc2)no1)Cc1cc(F)c(F)cc1F", "note": "(stereo partly drawn) [9b, (3R)-3-Amino-1-[(3R)-3-(3-phenyl-1,2,4-oxadiazol-5-yl)-2-azabicyclo[2.2.1]heptan-2-yl]-4-(2,4,5-trifluorophenyl)butan-1-one]", "values": [{"measurement": "pIC50", "setting": "[1]", "result": "< 6.00"}, {"measurement": "pIC50", "setting": "DPP-8 [2]", "result": "< 6.00"}, {"measurement": "pIC50", "setting": "DPP-9 [3]", "result": "< 6.00"}]}
{"smiles": "N#CC1C2CCC(C2)N1C(=O)CC(N)Cc1cc(F)c(F)cc1F", "note": "(centres unmarked) [Neogliptin, neogliptin]", "values": [{"measurement": "pIC50", "setting": "[4]", "result": 7.77}, {"measurement": "pIC50", "setting": "DPP-8 [5]", "result": "< 6.00"}, {"measurement": "pIC50", "setting": "DPP-9 [6]", "result": "< 6.00"}]}
{"smiles": "N[C@@H](CC(=O)N1C2CCC(C2)[C@@H]1c1noc(-c2ccccc2)n1)Cc1cc(F)c(F)cc1F", "note": "(stereo partly drawn) [3b, (3R)-3-Amino-1-[(3R)-3-(5-phenyl-1,2,4-oxadiazol-3-yl)-2-azabicyclo[2.2.1]heptan-2-yl]-4-(2,4,5-trifluorophenyl)butan-1-one]", "values": [{"measurement": "pIC50", "setting": "[1]", "result": "< 6.00"}, {"measurement": "pIC50", "setting": "DPP-8 [2]", "result": "< 6.00"}, {"measurement": "pIC50", "setting": "DPP-9 [3]", "result": "< 6.00"}]}
